Results published in patent publication US9814754B2, “Combinations with a backbone-cyclized peptide” (POLYPHOR AG, priority 2012, dated 2017).
Square brackets hold non-standard residues; d marks the D form. dDab = NCC[C@@H](N)C(=O)O; Orn = NCCC[C@H](N)C(=O)O; Dab = NCC[C@H](N)C(=O)O

Assays:
Type in all cases: in vivo
[1] = test system: Pseudomonas aeruginosa clinical isolate PAX11045; assay: Murine pneumonia model, compound 1 alone (Reference 1)
Procedure: Efficacy in Murine Pneumonia Model Against Pseudomonas aeruginosa PAX11045 and Estimation of ED50
The efficacy and ED50 of the compound of formula (I) (“compound 1”) was determined against Pseudomonas aeruginosa clinical isolate PAX11045 in a pneumonia model in mice. Colony counts in the lungs and spleen were determined at 20 hours post treatment.
(§1) Fresh overnight colonies of PAX11045 from a 5% Horse Blood Agar plate were suspended in 0.9% sterile saline to approximately 10^8 CFU/ml and further diluted to approximately 5×10^7 CFU/ml. Female mice (DBA/2, outbred, 18-22 g, Charles River) were anesthetized with 0.08 ml of Zoletil (tiletamine+zolazepam) and inoculated via the nose with a pipette with 0.05 ml of the bacteria suspension containing approximately 10^6 CFU. 4 hours after inoculation, the mice were treated orally with 45 μl neurophen (20 mg ibuprofen/ml corresponding to approximately 30 mg/kg) as pain relief.
One vial was further 2-fold diluted with saline to 2.25, 1.125, 0.56 and 0.28 mg/ml. The mice were treated subcutaneously with 0.2 ml in the neck region with a single dose at 4 hours post infection with a dose calculation based on a mean animal weight of 20 g.
(§2) Colony counts were determined post inoculation at 4 hours (untreated mice) and 24 hours (treated and vehicle-only treated mice). Immediately after the mice were sacrificed, the lungs and spleens were collected and frozen at −20° C. After thawing, the organs were homogenized in 1 ml 0.9% saline. Each sample was then 10-fold diluted in saline and 20 μl spots were applied on blood agar plates. All agar plates were incubated 18-48 hours at 35° C. in ambient air.

[2] = test system: Pseudomonas aeruginosa clinical isolate PA9349; assay: Murine pneumonia model, compound 1 alone (Reference 2); conditions: for mean CFU level compared to the vehicle group: lungs
Procedure: Efficacy in Murine Pneumonia Model Against Pseudomonas aeruginosa PA9349 and Estimation of ED50
The efficacy and ED50 of the compound of formula (I) (“compound 1”) was determined against Pseudomonas aeruginosa clinical isolate PA9349 in a pneumonia model in mice. Colony counts in the lungs were determined at 18-20 hours post treatment.
as §1, with “PA9349” for “PAX11045”, “5×10^6” for “5×10^7”, “0.1” for “0.08”, “5×10^5” for “10^6”
One vial containing 10 mg of active compound 1 was dissolved in 5 ml 0.9% sterile saline to a concentration of 2 mg/ml and was further 2-fold diluted with saline to 1, 0.5, 0.25, 0.125 and 0.06 mg/ml. The mice were treated subcutaneously with 0.2 ml in the neck region with a single dose at 4 hours post infection with a dose calculation based on a mean animal weight of 20 g. As positive control colistin was used in the same manner with a fixed dose of 40 mg/kg.
as §2, with “lungs” for “lungs and spleens”
The CFU/ml in the inoculum was determined to 7.29 log10 CFU/ml corresponding to 5.98 log10 CFU/mouse.
At 4 hours after infection the mean log10 CFU/lung was 3.47 and the CFU level increased to 4.92 at […] post inoculation in the vehicle-only group.

[3] = test system: Pseudomonas aeruginosa clinical isolate PA18298; assay: Murine pneumonia model, compound 1 in combination with amikacin (Example 4); conditions: murine lungs
Procedure: The efficacy and ED50 of the compound of formula (I) (“compound 1”) in combination with amikacin was determined against Pseudomonas aeruginosa clinical isolate PA18298 in a pneumonia model in mice. Colony counts in lung were determined at 20 hours post treatment.
as §1, with “PA18298” for “PAX11045”, “0.1” for “0.08”, “Zoletil” for “Zoletil (tiletamine+zolazepam)”
175 mg of amikacin (Sigma) were dissolved in 5 ml 0.9% sterile saline to a concentration of 35 mg/ml and further diluted with saline to 3 mg/ml. The mice were treated subcutaneously with 0.2 ml in the neck region with a single dose at 3 hours post infection corresponding to 30 mg/kg on the basis of a mean animal weight of 20 g.
One vial containing 10 mg of active compound 1 was dissolved in 2 ml 0.9% sterile saline to a concentration of 5 mg/ml and further diluted with saline […], 1, 0.55, 0.275 and 0.137 mg/ml. The mice were treated subcutaneously with 0.2 ml in the neck region with a single dose at 4 hours post infection with a dose calculation based on a mean animal weight of 20 g. Colistin was used as a control in the same manner with a fixed dose of 20 mg/kg.
as §2, with “lungs” for “lungs and spleens”, “10 fold” for “10-fold”, “18-24” for “18-48”
The CFU/ml in the inoculum was determined to 7.4 log10 CFU/ml corresponding to 6.17 log10 CFU/mouse.
At 4 hours after inoculation the mean log 10 CFU/lung was 5.06 and the CFU level declined to 1.55 mean log 10 CFU/lung after 24 hours in the vehicle group.

[4] = compound 1 alone, s.c. single dose 4 h post infection, murine lungs
[5] = compound 1 alone, s.c., murine lungs
[6] = compound 1 alone, s.c., murine lungs, sigmoidal dose-response model (variable slope)
[7] = in presence of 30 mg/kg amikacin

Substance: cyclo(TWI[Dab][Orn][dDab][Dab]W[Dab][Dab]AS[dP]P) [compound 1]
- Bottom level [1, 4]: −2.2 log10 CFU/ml
- Top level ([1]; compound 1 alone, s.c. single dose 4 h post infection, murine lungs, sigmoidal dose-response model): 1.3 log10 CFU/ml
- 1 log killing dose [1, 5]: 8.1 mg/kg
- 2 log killing dose [1, 5]: 20 mg/kg
- Emax [1, 5]: 3.5 log10 CFU/ml
- Static dose [1, 5]: 1.55 mg/kg
- ED50 [1, 6]: 4.33 mg/kg
- CFU levels compared to vehicle treatment ([1]; compound 1 s.c. dose series, both organs (lungs and spleen), p<0.001 for the higher concentrations): concentration dependent significant reduction of the CFU levels
- mean CFU level compared to the vehicle group ([2]; 10 mg/kg treatment group): reduction of the mean CFU level
- mean CFU level compared to the vehicle group ([2]; 20 mg/kg treatment group): significant reduction
- Top level [2, 4]: 1.59 log10 CFU/ml
- Bottom level [2, 5]: −0.80 log10 CFU/ml
- Emax [2, 5]: −2.4 log10 CFU/ml
- Static dose [2, 5]: 9.15 mg/kg
- ED50 [2, 6]: 7.35 mg/kg
- Top level ([3]; compound 1 s.c. in presence of 30 mg/kg amikacin (s.c., 3 h post infection)): −3.03 log10 CFU/ml
- Bottom level [3, 7]: −3.82 log10 CFU/ml
- Emax [3, 7]: 0.79 log10 CFU/ml
- ED50 ([3]; in presence of fixed dose of 30 mg/kg amikacin): 9.1 mg/kg
